In data set [1] the test system is CHIKV-nLuc (181/25 strain). In words: microbe, parasite or virus in culture. Format: cell-based, Chikungunya virus. Conditions: Chikungunya virus, 384-well format, read 20 h after infection, read-out: Normalized percent inhibition in primary screen.
Data set [2] has as its system SINV-GLuc. In words: microbe, parasite or virus in culture. Format: cell-based. Conditions: Sindbis virus, Vero C1008; VeroE6 cells; read-out: Antiviral potency (EC50 [µM]) SINV.
The test system of data set [3] is HPIV3-nLuc. The experiment in a line: microbe, parasite or virus in culture. In kind it is cell-based. Conditions: Human respirovirus 3, Vero C1008; VeroE6 cells; read-out: Antiviral potency (EC50 [µM]) HPIV3.
For data set [4], the system named is SARS-CoV-2-nLuc. In words: microbe, parasite or virus in culture. In kind it is cell-based. Conditions: Severe acute respiratory syndrome coronavirus 2; VeroE6-TMPRSS2 cells; read-out: Antiviral potency (EC50 [µM]) SARS-CoV-2.
The test system of data set [5] is RSV A2-L19F. The experiment in a line: microbe, parasite or virus in culture. The note with it: human respiratory syncytial virus; Hep-2 cells; read-out: Antiviral potency (EC50 [µM]) RSV. Format: cell-based.
For data set [6], the system named is VSV-nLuc. The experiment in a line: microbe, parasite or virus in culture. Format: cell-based. Conditions: Vesicular stomatitis virus, Vero C1008, read-out: Antiviral potency (EC50 [µM]) VSV.
A short description of data set [7]: in vitro. Conditions: African green monkey.
The nature of data set [8]: in vitro. The note with it: human.
The subject of data set [9] is VEEV-TC83-nLuc. In words: microbe, parasite or virus in culture. In kind it is cell-based. Conditions: Venezuelan equine encephalitis virus, Vero C1008, read-out: Antiviral potency (EC50 [µM]) VEEV.
The test system of data set [10] is CHIKV-nLuc. In words: microbe, parasite or virus in culture. The note with it: Chikungunya virus, U2OS; MOI 0.1 FFU/cell, 24 hpi, in-house synthesized compound; read-out: EC50 CHIKV-nLuc, U-2 OS. Format: cell-based, Chikungunya virus.
In data set [11] the test system is CHIKV-nLuc. The experiment in a line: microbe, parasite or virus in culture. Format: cell-based, Chikungunya virus.
Data set [12] is described as follows: Cytotoxicity assay (PrestoBlue, 24 h) in U-2 OS cells. Format: cell-based, Human. Conditions: human, U-2 OS cells.
The nature of data set [13]: Cytotoxicity assay (PrestoBlue, 24 h) in NHDF cells. Format: cell-based, Human. The note with it: human, NHDF cells. Here is the method:
NHDF cells were seeded at 10,000 cells per well in 24-well plates and cultured for 24 h. Cells were then treated with threefold serial dilutions of compounds starting at 500 µM and incubated for 24 h. DMSO was included as a negative control for normalization. Following treatment, cells were incubated with PrestoBlue reagent (ThermoFisher Scientific) for 1 h at 37°C, and fluorescence was measured using a PerkinElmer Victor X5 multilabel plate reader. The CC50 values were determined by normalized non-linear regression with a variable slope model in Prism (GraphPad).

In data set [14] the test system is CHIKV 181/25. The experiment in a line: Virus yield dose-response in U-2 OS cells, CHIKV. In kind it is cell-based, Chikungunya virus. The note with it: Chikungunya virus, U2OS.
The test system of data set [15] is ONNV. The experiment in a line: organism not typed. In kind it is cell-based, o'nyong-nyong virus. The note with it: U2OS, read-out: EC50 virus production, ONNV.
Data set [16] deals with RRV. The experiment in a line: microbe, parasite or virus in culture. Conditions: Ross River virus, U2OS, read-out: EC50 virus production, RRV. Format: cell-based, Ross River virus.
The test system of data set [17] is SINV. In words: microbe, parasite or virus in culture. Conditions: Sindbis virus, U2OS, read-out: EC50 virus production, SINV. Format: cell-based, Sindbis virus.
Data set [18] concerns MAYV. The experiment in a line: microbe, parasite or virus in culture. In kind it is cell-based, Mayaro virus. Conditions: Mayaro virus, U2OS, read-out: EC50 virus production, MAYV.
Data set [19] has as its system SFV. In words: microbe, parasite or virus in culture. In kind it is cell-based, Semliki Forest virus. The note with it: Semliki Forest virus, U2OS, read-out: EC50 virus production, SFV.
In data set [20] the target is T1, CHIKV trans-replicase (P1234) (Chikungunya virus, UniProt Q8JUX6).
T1 construct: expression of the P1234 polyprotein drives replication of a reporter RNA template; expressed in transfected cells; host or cells: U-2 OS
The experiment in a line: Trans-replicase assay, CHIKV. Format: cell-based. Conditions: 100 µM, U-2 OS, 20 h. How it is done: (§1) U-2 OS cells were seeded at 75,000 cells per well in 24-well plates and cultured for 24 h. Cells were then co-transfected with 250 ng of plasmid encoding template RNA and 250 ng of plasmid encoding P1234 WT ([72], [73]), using Lipofectamine LTX with PLUS reagent (ThermoFisher Scientific) following the manufacturer’s instructions. After 4 h of post-transfection, medium containing 100 µM of compounds or DMSO was added to the cells. Cells were then incubated for 20 h, lysed, and GLuc activity was quantified using the Dual-Luciferase Reporter Assay System (Promega). Luciferase activities were normalized to those of the DMSO-treated controls.

The target of data set [21] is T2, ONNV trans-replicase (P1234) (O'nyong-nyong virus, UniProt P13886).
T2 construct: expression of the P1234 polyprotein drives replication of a reporter RNA template; expressed in transfected cells; host or cells: U-2 OS
In words: Trans-replicase assay, ONNV. Format: cell-based. Conditions: 100 µM, U-2 OS, 20 h. Here is the method:
as §1

The target of data set [22] is T3, RRV trans-replicase (P1234) (Ross river virus, UniProt P13887).
T3 construct: expression of the P1234 polyprotein drives replication of a reporter RNA template; expressed in transfected cells; host or cells: U-2 OS
The experiment in a line: Trans-replicase assay, RRV. Format: cell-based. The note with it: 100 µM, U-2 OS, 20 h. How it is done: as §1

Data set [23] deals with T4, MAYV trans-replicase (P1234) (Mayaro virus, UniProt Q8QZ73).
T4 construct: expression of the P1234 polyprotein drives replication of a reporter RNA template; expressed in transfected cells; host or cells: U-2 OS
In words: Trans-replicase assay, MAYV. In kind it is cell-based. The note with it: 100 µM, U-2 OS, 20 h. Here is the method: as §1

In data set [24] the target is T5, SINV trans-replicase (P1234) (Sindbis virus, UniProt P03317).
T5 construct: expression of the P1234 polyprotein drives replication of a reporter RNA template; expressed in transfected cells; host or cells: U-2 OS
In words: Trans-replicase assay, SINV. In kind it is cell-based. The note with it: 100 µM, U-2 OS, 20 h. Here is the method: as §1

Data set [25] deals with T6, SFV trans-replicase (P1234) (Semliki forest virus, UniProt P08411).
T6 construct: expression of the P1234 polyprotein drives replication of a reporter RNA template; expressed in transfected cells; host or cells: U-2 OS
In words: Trans-replicase assay, SFV. Format: cell-based. The note with it: 100 µM, U-2 OS, 20 h. Here is the method: as §1

Data set [26] deals with T7, BFV trans-replicase (P1234) (Barmah forest virus, UniProt P87515).
T7 construct: expression of the P1234 polyprotein drives replication of a reporter RNA template; expressed in transfected cells; host or cells: U-2 OS
The experiment in a line: Trans-replicase assay, BFV. Conditions: 100 µM, U-2 OS, 20 h. In kind it is cell-based. How it is done:
as §1

In data set [27] the target is EEEV trans-replicase (P1234) (Eastern equine encephalitis virus, UniProt Q306W6). In kind it is cell-based.
The target in data set [28] is VEEV trans-replicase (P1234) (Venezuelan equine encephalitis virus, UniProt P36328). Format: cell-based.
For data set [29], the system named is CHIKV. In words: Selection for viral resistance by serial passage in U-2 OS cells, whole-genome sequencing. The note with it: passage 1, MOI 1 FFU/cell, 16 h. Format: cell-based, Chikungunya virus.
For data set [30], the system named is CHIKV-nLuc. In kind it is cell-based, Chikungunya virus. Conditions: 20 µM, U-2 OS, reporter read at 24 h.
In data set [31] the test system is CHIKV replicon. The experiment in a line: microbe, parasite or virus in culture. The note with it: Chikungunya virus, U2OS, read-out: Antiviral potency (EC50 [µM]) CHKV replicon. On the technique in general: Replicon systems follow genome replication, usually without infectious particles.

Where two headings read alike, the source gives them in different places.

As usually defined, the inhibition is the change of the read-out against control, counted positive when it falls. The EC50 is the concentration giving half of the maximal effect. With `Cc1ccc(NC(=O)c2oc3ccccc3c2NC(=O)c2nc(S(C)(=O)=O)ncc2Cl)cc1` [GAP-1027276], the inhibition at 5 µM in data set [1] was found to be 98.2%. The EC50 in data set [2] is more than 20 µM; in data set [3], more than 20 µM; in data set [4] it was more than 20 µM; in data set [5] it was more than 10 µM; in data set [6], more than 20 µM. For the same compound, the figures for the CC50 in data set [7] and in data set [8] were more than 20 µM and 20 µM, respectively.
Regarding `O=C(CN1C(=O)CNC1=O)NCc1n[nH]c2c1CCCCC2` [GAP-1173149, 2-(2,5-dioxoimidazolidin-1-yl)-N-(1,4,5,6,7,8-hexahydrocyclohepta[d]pyrazol-3-ylmethyl)acetamide], in data set [1], the inhibition at 5 µM amounted to 88.7%. The EC50 in data set [9] is 52.3 µM; in data set [2], more than 100 µM; in data set [3], more than 100 µM; in data set [4] it was more than 100 µM; in data set [5], more than 10 µM; in data set [6] it was more than 100 µM. For the same compound, the EC50 in data set [10] came to 13.6 ± 0.16 µM; in [11] (Chikungunya virus, NHDF, MOI 0.1 FFU/cell, 24 hpi, in-house synthesized compound), 11.6 µM; in data set [14] (MOI 0.1, supernatant 24 hpi titered by FFA (Fig. 5), read-out: EC50 virus production, CHIKV) it was 10.2 ± 0.95 µM; in [14] (resistance study (Fig. 7), read-out: EC50 virus production, CHIKV WT), 9.15 ± 1.62 µM; in data set [15] it was 5.22 ± 1.11 µM; in data set [16], 10 ± 0.64 µM. The EC50 in data set [17] is more than 100 µM; in data set [18], more than 100 µM; in data set [19] it was more than 100 µM; in data set [31], 5.3 µM. For the same compound, in data set [11] (NHDF cells), the “selectivity index (SI = CC50/EC50)” value was more than 43. Besides, the CC50 at 24 h in data set [12] and in data set [13] was more than 500 µM throughout. In addition, in data set [20], the “Effect on RNA replication (GLuc) in trans-replicase assay, CHIKV” value is given as “suppressed replication”. Further, the “Effect on RNA replication (GLuc) in trans-replicase assay, ONNV” value in [21] is listed as “suppressed replication”. Moreover, in data set [22], the “Effect on RNA replication (GLuc) in trans-replicase assay, RRV” value is listed as “suppressed replication”. Further, in [23], the “Effect on RNA replication (GLuc) in trans-replicase assay, MAYV” value is “no significant effect”. Besides, in data set [24], the “Effect on RNA replication (GLuc) in trans-replicase assay, SINV” value is on record as “no significant effect”. In [25], the “Effect on RNA replication (GLuc) in trans-replicase assay, SFV” value is “no significant effect”. The “Effect on RNA replication (GLuc) in trans-replicase assay, BFV” value in data set [26] is reported as “effectively inhibited”. In addition, the “Effect on RNA replication (GLuc) in trans-replicase assay, EEEV” value in [27] is listed as “effectively inhibited”. Also, the “Effect on RNA replication (GLuc) in trans-replicase assay, VEEV” value in data set [28] was “did not show significant VEEV inhibition”. For the same compound, in data set [29], the “Reduction of virus titers at P1 compared with DMSO-treated controls” value amounted to 1 log. Further, in data set [30], the “Time-of-addition profile (stage of replication targeted)” value was “act on a stage after viral entry”. Also, the CC50 in data set [7] and in data set [8] was more than 100 µM in each case.
On to `CCNc1nc(C)cc(N2CCN(C(=O)c3ccccc3Br)CC2)n1` [GAP-1354666], for which the inhibition at 5 µM in data set [1] is 82.5%.
With `CCNc1nc(C)cc(N2CCN(C(=O)c3ccccc3Cl)CC2)n1` [GAP-1358555], the inhibition at 5 µM in data set [1] was determined as 85.8%.
As to `CCS(=O)(=O)c1ncc(Cl)c(C(=O)Nc2nnc(C(C)C)s2)n1` [GAP-1027282], the inhibition at 5 µM in data set [1] was 97.2%. The EC50 was more than 20 µM in [2]; more than 20 µM in data set [3]; more than 20 µM in [4]; more than 10 µM in data set [5]; more than 20 µM in data set [6]. The CC50 in data set [7] is more than 20 µM; in data set [8], 16.7 µM.
For `CCN1CCc2nc3sc(C(=O)c4ccccc4)c(C)c3cc2C1` [GAP-1022776], the inhibition at 5 µM in data set [1] was determined as 85.7%. Besides, the EC50 in [2] was more than 20 µM; in [3] it was more than 20 µM; in data set [4], more than 20 µM; in [5], more than 10 µM; in data set [6] it was more than 20 µM. Besides, the CC50 in [7] was 25.2 µM; in [8], 19.2 µM.

Source of the values: article PMC13288994, “Identification and characterization of novel chikungunya virus polymerase inhibitors” (Journal of Virology, 2026).
